We go through 24 molecules from patent publication US7112601B2, “Cycloalkyl heterocycles for treating hepatitis C virus” (priority 2003, dated 2006).

Each structure is given as a SMILES string.

In the assay the target is T1, HCV NS5B RdRp (Hepatitis C virus genotype 1b, UniProt Q9WMX2).
T1 construct: The protein was expressed with an 18 amino acid C-terminal truncation to enhance the solubility; made in house; host or cells: E. coli BL21(DE3)
T1 sequence (Q9WMX2 2420-2992): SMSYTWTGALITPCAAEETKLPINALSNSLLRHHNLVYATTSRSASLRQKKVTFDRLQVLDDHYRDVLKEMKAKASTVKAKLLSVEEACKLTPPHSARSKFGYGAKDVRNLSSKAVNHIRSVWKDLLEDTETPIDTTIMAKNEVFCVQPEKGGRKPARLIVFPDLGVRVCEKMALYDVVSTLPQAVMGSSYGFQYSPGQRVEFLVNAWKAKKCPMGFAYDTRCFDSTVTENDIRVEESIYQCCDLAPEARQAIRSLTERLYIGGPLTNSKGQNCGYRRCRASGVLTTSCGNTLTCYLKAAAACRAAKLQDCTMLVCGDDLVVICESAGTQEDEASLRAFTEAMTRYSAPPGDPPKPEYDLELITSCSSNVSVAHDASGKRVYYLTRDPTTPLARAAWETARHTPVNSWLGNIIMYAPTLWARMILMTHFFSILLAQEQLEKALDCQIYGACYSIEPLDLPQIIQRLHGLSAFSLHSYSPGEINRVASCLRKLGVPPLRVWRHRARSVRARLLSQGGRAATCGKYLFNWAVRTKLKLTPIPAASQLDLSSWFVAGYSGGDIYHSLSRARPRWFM
The assay can be described thus: HCV NS5B RdRp enzyme inhibition assay. Format: biochemical. As for the experimental part: HCV NS5B RdRp cloning, expression, and purification. The cDNA encoding the NS5B protein of HCV, genotype 1b, was cloned into the pET21a expression vector. The protein was expressed with an 18 amino acid C-terminal truncation to enhance the solubility. The E. coli competent cell line BL21(DE3) was used for expression of the protein. Cultures were grown at 37° C. for ˜4 hours until the cultures reached an optical density of 2.0 at 600 nm. The cultures were cooled to 20° C. and induced with 1 mM IPTG. Fresh ampicillin was added to a final concentration of 50 ug/ml and the cells were grown overnight at 20° C.
Cell pellets (3L) were lysed for purification to yield 15–24 mgs of purified NS5B. The lysis buffer consisted of 20 mM Tris-HCl, pH 7.4, 500 mM NaCl, 0.5% triton X-100, 1 mM DTT, 1 mM EDTA, 20% glycerol, 0.5 mg/ml lysozyme, 10 mM MgCl2, 15 ug/ml deoxyribonuclease I, and Complete TM protease inhibitor tablets (Roche). After addition of the lysis buffer, frozen cell pellets were resuspended using a tissue homogenizer. To reduce the viscosity of the sample, aliquots of the lysate were sonicated on ice using a microtip attached to a Branson sonicator. The sonicated lysate was centrifuged at 100,000×g for 1 hr at 4° C. and filtered through a 0.2 μm filter unit (Corning).
The protein was purified using three sequential chromatography steps: Heparin sepharose CL-6B, polyU sepharose 4B, and Hitrap SP sepharose (Pharmacia). The chromatography buffers were identical to the lysis buffer but contained no lysozyme, deoxyribonuclease I, MgCl2 or protease inhibitor and the NaCl concentration of the buffer was adjusted according to the requirements for charging the protein onto the column. Each column was eluted with a NaCl gradient which varied in length from 5–50 column volumes depending on the column type. After the final chromatography step, the resulting purity of the enzyme is >90% based on SDS-PAGE analysis. The enzyme was aliquoted and stored at −80° C.
HCV NS5B RdRp enzyme assay. HCV RdRp genotype 1b assays were run in assay buffer composed of 20 mM Tris-HCl, pH 7.5, 2.5 mM KCl, 5 mM MgCl2, 1 mM DTT, 1.6 U RNAse inhibitor (Promega N2515), in 96 well plates (Falcon 3918). All compounds were serially diluted in DMSO and diluted further in assay buffer such that the final concentration of DMSO in the assay was 2%. Compounds were serially diluted (3-fold each time) for a 7 point inhibition analysis. HCV RdRp genotype 1b enzyme was used at a final concentration of 28 nM. A polyA template was used at 28 nM, and the oligo-dT12-18 primer was used at 840 nM final concentration. Preannealed primer and template were obtained commercially (Amersham 27-787802). ^3H-UTP was used at 0.125 μCi (1 μM total UTP). Reaction was initiated by the addition of enzyme. Reactions were incubated at 30° C. for 45 min, and stopped by adding 30 ul of 20% ice cold TCA. Plates were chilled for 30 minutes and harvested onto Unifilter-96, GF/B plates (Packard, 6005177) using a Packard FilterMate Cell Harvester. The harvest plates were prewashed 3 times, 200 ul/well, with 100 mM NaPPi. Harvested filters were washed 30 times, 200 ul/well, with distilled water followed by ethanol. Filter plates were dried, and 30 ul/well microscint-20 was added. Plates were read on a Packard Top Count NXT.
The IC50 values for compounds were determined using […] different [I], combined with 7 nM enzyme, 800 ng of the template-primer polyC/oligoG12 (1:5 molar ratio), and 0.7 uM of ^3H GTP containing 1 uCi. The observed fractional activity (fa=vi/vo) was used in the equation IC50=[I]/(1/fa-1) to determine a single point IC50 value. Typically, the single point IC50 values derived from [I] that produced fractional activities in the range of 0.1 to 0.8 relative to the uninhibited control were averaged to calculate the IC50 value for each compound.
A word on the IC50: it is the point on the concentration scale where inhibition reaches its midpoint. A lower IC50 goes with inhibition by little substance. On to `CCOC(=O)c1cc(-c2ccc(OCc3ccccc3)cc2)n(C2CCCCC2)n1` [Example 1, Ethyl 1-cyclohexyl-5-(4-benzyloxyphenyl)-1H-pyrazole-3-carboxylate], for which the IC50 was above 25 µM.

`COC(=O)/C=C/c1cc(-c2ccc(OCc3ccccc3)cc2)n(C2CCCCC2)n1` [Example 2, Methyl (2E)-3-{5-[4-(benzyloxy)phenyl]-1-cyclohexyl-1H-pyrazol-3-yl}-2-propenoate] gave an IC50 above 25 µM.

Molecule `O=C(O)/C=C/c1cc(-c2ccc(OCc3ccccc3)cc2)n(C2CCCCC2)n1` [Example 3, (2E)-3-[1-cyclohexyl-5-(4-benzyloxyphenyl)-1H-pyrazol-3-yl]-2-propenoic acid] returned an IC50 of 15 µM.

For the molecule `COC(=O)/C=C/c1cc(-c2ccc(OCc3cc(OC)ccc3-c3ccc(Cl)cc3)cc2)n(C2CCCCC2)n1` [Example 4, Methyl (2E)-3-(5-{4-[(4′-chloro-4-methoxy-1,1′-biphenyl-2-yl)methoxy]phenyl}-1-cyclohexyl-1H-pyrazol-3-yl)-2-propenoate], the 50% inhibitory concentration (IC50) is above 25 µM.

With `COc1ccc(-c2ccc(Cl)cc2)c(COc2ccc(-c3cc(/C=C/C(=O)O)nn3C3CCCCC3)cc2)c1` [Example 5, (2E)-3-(5-{4-[(4′-chloro-4-methoxy-1,1′-biphenyl-2-yl)methoxy]phenyl}-1-cyclohexyl-1H-pyrazol-3-yl)-2-propenoic acid], the IC50 came to 0.45 µM.

For `CCOC(=O)/C(C)=C/c1cc(-c2ccc(OCc3ccccc3)cc2)n(C2CCCCC2)n1` [Example 6, Ethyl (2E)-3-{5-[4-(benzyloxy)phenyl]-1-cyclohexyl-1H-pyrazol-3-yl}-2-methyl-2-propenoate], the IC50 was above 25 µM.

Take `C/C(=C\c1cc(-c2ccc(OCc3ccccc3)cc2)n(C2CCCCC2)n1)C(=O)O` [Example 7, (2E)-3-{5-[4-(benzyloxy)phenyl]-1-cyclohexyl-1H-pyrazol-3-yl}-2-methyl-2-propenoic acid]: the IC50 was 10 µM.

`CCOC(=O)/C(C)=C/c1cc(-c2ccc(OCc3cc(OC)ccc3-c3ccc(Cl)cc3)cc2)n(C2CCCCC2)n1` [Example 8, Ethyl (2E)-3-(5-{4-[(4′-chloro-4-methoxy-1,1′-biphenyl-2-yl)methoxy]phenyl}-1-cyclohexyl-1H-pyrazol-3-yl)-2-methyl-2-propenoate]: the IC50 is above 25 µM.

Regarding `COc1ccc(-c2ccc(Cl)cc2)c(COc2ccc(-c3cc(/C=C(\C)C(=O)O)nn3C3CCCCC3)cc2)c1` [Example 9, (2E)-3-(5-{4-[(4′-chloro-4-methoxy-1,1′-biphenyl-2-yl)methoxy]phenyl}-1-cyclohexyl-1H-pyrazol-3-yl)-2-methyl-2-propenoic acid], the midpoint of inhibition, the IC50, lay at 0.27 µM. In other words, the sub-micromolar range.

Take `CCOC(=O)/C(C)=C/c1cc(-c2ccc(OCc3cc(C(=O)OC(C)(C)C)ccc3Br)cc2)n(C2CCCCC2)n1` [Example 10, Ethyl (2E)-3-(5-{4-[(t-butyl-2-bromo-5-phenylcarboxylate)methoxy]phenyl}-1-cyclohexyl-1H-pyrazol-3-yl)-2-methyl-2-propenoate]: the IC50 is above 25 µM.

For the molecule `CCOC(=O)/C(C)=C/c1cc(-c2ccc(OCc3cc(C(=O)OC(C)(C)C)ccc3-c3ccc(Cl)cc3)cc2)n(C2CCCCC2)n1` [Example 11, Ethyl (2E)-3-(5-{4-[(4′-chloro-4-t-butoxycarbonyl-1,1′-biphenyl-2-yl)methoxy]phenyl}-1-cyclohexyl-1H-pyrazol-3-yl)-2-methyl-2-propenoate], the IC50 is above 25 µM.

For `CCOC(=O)/C(C)=C/c1cc(-c2ccc(OCc3cc(C(=O)NC)ccc3-c3ccc(Cl)cc3)cc2)n(C2CCCCC2)n1` [Example 12, Ethyl (2E)-3-(5-{4-[(4′-Chloro-4-N-methylcarbamoyl-1,1′-biphenyl-2-yl)methoxy]phenyl}-1-cyclohexyl-1H-pyrazol-3-yl)-2-methyl-2-propenoate], the concentration for half-maximal inhibition (IC50) was above 25 µM.

In turn, `CNC(=O)c1ccc(-c2ccc(Cl)cc2)c(COc2ccc(-c3cc(/C=C(\C)C(=O)O)nn3C3CCCCC3)cc2)c1` [Example 13, (2E)-3-(5-{4-[(4′-Chloro-4-N-methylcarbamoyl-1,1′-biphenyl-2-yl)methoxy]phenyl}-1-cyclohexyl-1H-pyrazol-3-yl)-2-methyl-2-propenoic acid] showed an IC50 of 0.38 µM.

`COC(=O)CCc1cc(-c2ccc(OCc3ccccc3)cc2)n(C2CCCCC2)n1` [Example 14, Methyl 3-{5-[4-(benzyloxy)phenyl]-1-cyclohexyl-1H-pyrazol-3-yl}propanoate] displayed an IC50 above 25 µM.

With `O=C(O)CCc1cc(-c2ccc(OCc3ccccc3)cc2)n(C2CCCCC2)n1` [Example 15, 3-{5-[4-(benzyloxy)phenyl]-1-cyclohexyl-1H-pyrazol-3-yl}propanoic acid], the IC50 is above 25 µM.

The molecule `COC(=O)CCc1cc(-c2ccc(OCc3cc(OC)ccc3-c3ccc(Cl)cc3)cc2)n(C2CCCCC2)n1` [Example 16, Methyl 3-(5-{4-[(4′-chloro-4-methoxy-1,1′-biphenyl-2-yl)methoxy]phenyl}-1-cyclohexyl-1H-pyrazol-3-yl)propanoate] registered an IC50 above 25 µM.

As to `COc1ccc(-c2ccc(Cl)cc2)c(COc2ccc(-c3cc(CCC(=O)O)nn3C3CCCCC3)cc2)c1` [Example 17, 3-(5-{4-[(4′-chloro-4-methoxy-1,1′-biphenyl-2-yl)methoxy]phenyl}-1-cyclohexyl-1H-pyrazol-3-yl)propanoic acid], the IC50 was determined as 1.8 µM.

The molecule `CCOC(=O)C#Cc1cc(-c2ccc(OCc3ccccc3)cc2)n(C2CCCCC2)n1` [Example 18, Ethyl 3-{5-[4-(benzyloxy)phenyl]-1-cyclohexyl-1H-pyrazol-3-yl}-2-propynoate] had an IC50 above 25 µM.

As to `O=C(O)C#Cc1cc(-c2ccc(OCc3ccccc3)cc2)n(C2CCCCC2)n1` [Example 19, 3-{5-[4-(benzyloxy)phenyl]-1-cyclohexyl-1H-pyrazol-3-yl}-2-propynoic acid], the IC50 turned out to be 4.9 µM.

The molecule `CCOC(=O)C#Cc1cc(-c2ccc(OCc3cc(OC)ccc3-c3ccc(Cl)cc3)cc2)n(C2CCCCC2)n1` [Example 20, Ethyl 3-(5-{4-[(4′-chloro-4-methoxy-1,1′-biphenyl-2-yl)methoxy]phenyl}-1-cyclohexyl-1H-pyrazol-3-yl)-2-propynoate] had an IC50 above 25 µM.

On to `COc1ccc(-c2ccc(Cl)cc2)c(COc2ccc(-c3cc(C#CC(=O)O)nn3C3CCCCC3)cc2)c1` [Example 21, 3-(5-{4-[(4′-chloro-4-methoxy-1,1′-biphenyl-2-yl)methoxy]phenyl}-1-cyclohexyl-1H-pyrazol-3-yl)-2-propynoic acid], for which the IC50 turned out to be 2.3 µM.

Consider `CCOC(=O)c1nn(C2CCCCC2)c(-c2ccc(OCc3ccccc3)cc2)c1Br` [Example 22, Ethyl 5-[4-(benzyloxy)phenyl]-4-bromo-1-cyclohexyl-1H-pyrazole-3-carboxylate], for which the IC50 is above 25 µM.

The molecule `COC(=O)/C=C/c1nn(C2CCCCC2)c(-c2ccc(OCc3ccccc3)cc2)c1Br` [Example 23, Methyl (2E)-3-{5-[4-(benzyloxy)phenyl]-4-bromo-1-cyclohexyl-1H-pyrazol-3-yl}-2-propenoate] registered a concentration for half-maximal inhibition (IC50) above 25 µM.

Turning to `O=C(O)/C=C/c1nn(C2CCCCC2)c(-c2ccc(OCc3ccccc3)cc2)c1Br` [Example 24, (2E)-3-{5-[4-(benzyloxy)phenyl]-4-bromo-1-cyclohexyl-1H-pyrazol-3-yl}-2-propenoic acid], the IC50 turned out to be 3.1 µM.
